# Paper PMC8490515, “Neuromedin B receptor stimulation of Cav3.2 T-type Ca^2+ channels in primary sensory neurons mediates peripheral pain hypersensitivity” (Theranostics, 2021)
# Assays:
# [1] = test system: PKA; assay: PKA activity assay in TG cells (Pep Tag); assay type: cell-based, mouse; details: 100 nM Nmb, 30 min; triplicate
# Method: PKA enzymatic activity in cell lysates was measured using the Pep Tag assay for nonradioactive detection of PKA (Promega, Madison, WI, USA) as described in our previous studies. Briefly, TG cells were cultured in 12-well plates and preincubated with BIM23042 (0.5 μM) or compound C (10 μM) followed by exposure to 100 nM Nmb for 30 min. TG cells were washed with ice-cold phosphate-buffered saline and placed on ice. PKA was extracted from the cell lysates with cold PKA extraction buffer (25 mM Tris-HCl, pH 7.4, 0.5 mM EDTA, 0.5 mM EGTA, 10 mM β-mercaptoethanol, 1 μg/mL leupeptin and 1 μg/mL aprotinin). The assay was conducted according to the manufacturer's instructions.
# [2] = test system: high-voltage activated (HVA) Ca^2+ channels, L-type; assay: HVA / L-type Ca2+ channel currents in TG neurons; assay type: cell-based, mouse
# Method: (§1) All the procedures performed in this study were carried out in accordance with NIH guidelines and were approved by the Institutional Animal Care and Use Committee of Soochow University. TG neurons were dissociated as previously described, [23]. Briefly, TGs were harvested from 8- to 10-week-old ICR mice of either sex, cut into small pieces and treated with 2 mg/mL collagenase D (Roche) for 20 min followed by 1.5 mg/mL trypsin (Sigma) at 37 °C for 15 min. Cells were dissociated via gentle trituration with fire-polished sterilized Pasteur pipettes and centrifuged through a 15% BSA gradient to remove debris and nonneuronal cells. TG neurons were resuspended in neurobasal A (Thermo Fisher) supplemented with B27 (Thermo Fisher) and transferred onto Matrigel-coated coverslips. Patch clamp recordings were conducted 2 to 6 h after plating. In shRNA-treated knockdown experiments, TG cells were replated onto coverslips 48 h after infection.
# (§2) Standard whole-cell recordings were made at room temperature (22-23 °C) as described previously, [25]. Recording electrodes were pulled from borosilicate glass microcapillary tubes (Sutter Instruments) and had resistances from 3 to 5 MΩ when filled with internal solution. Recordings were obtained using a MultiClamp 700B amplifier (Axon Instruments). […]
# [3] = test system: p42 MAPK in Rat-1 cells transfected with the Nmb-preferring receptor; details: PKC-independent and pertussis toxin-insensitive; ref [62]; cited from earlier work
# Excerpt: In contrast, stimulation of PKC either by insulin-like growth factor in dorsal root ganglion neurons or by angiote ...
# [4] = test system: transient outward K^+ channel (IA); assay: Transient outward A-type K+ currents (IA) in TG neurons; assay type: cell-based, mouse; details: 100 nM
# Method: as §1, §2
substance,measurement,setting,value
Neuromedin B [Nmb],PKA activity,[1],increase in PKA activity
same,decrease of L-type channel currents,[2]; 100 nM,19.6 ± 2.2%
same,decrease of remaining HVA Ca2+ channel currents,[2]; 100 nM Nmb with 5 μM nifedipine,1.3 ± 0.6%
same,p42 MAPK activation,[3],activated p42 MAPK
same,decrease of peak amplitude of IA,[4],22.3 ± 3.9%
